One test deals with RAW 264.7 cells. Description: Nitrate/nitrite analysis of cell culture media. The class given is cell-based, mouse. To be noted: 1 h post LPS, presence or absence of CO. How it is done: Nitrate/Nitrite Analysis. Both analytes were measured in the cell culture media which had been ultrafiltered to remove all proteins greater than 10,000 molecular weight. All samples were than analyzed according to the assay kit protocols. (R & D, Minneapolis, Minn.). cGMP Radioimmunoassay (RIA) in macrophages. Macrophages or vascular smooth muscle cells were exposed to CO (250 ppm) or air. 20 min before the end of the exposure 1 mM of 3-isobutyl-1-methylxanthine (IBMX) was added to the cells to prevent phosphodiesterase degradation of cGMP. After 2 h of exposure, cells were removed from the exposure chamber, rinsed with PBS and then 0.5 ml of 75% EtOH was added to the plate and cells were scraped and disrupted via sonication for 5 s. Samples were then centrifuged at 2000 g for 10 min. Supernatants were transferred to fresh tubes and evaporated to dryness. cGMP concentration in the cell extracts was determined by radioimmunoassay (NEN, Boston, Mass.) according to manufacturer's instructions. cGMP was normalized to protein concentration as determined by Bradford assay. Statistical Analysis. Data are expressed as the mean±SE. Differences in measured variables between experimental and control group were assessed using Student's t tests. Statistical calculations were performed on a Macintosh personal computer using the Statview II Statistical Package (Abacus Concepts, Berkeley, Calif.). […]

Test [1] concerns rats given lipopolysaccharide. Kind of test: LPS-induced neutrophil influx into the airways of rats. The class given is in vivo, rat. The conditions noted are these: LPS 3 mg/kg i.v., exposed to CO. How it is done:
Animals were anesthesized with sodium pentobarbital 24 h after LPS administration or 56 h of hyperoxia exposure. BAL (35 ml/kg) was performed 4 times with PBS (pH 7.4). Cells were pooled from the lavages and centrifuged at 1200 g for 10 min. The supernatant was discarded and cells were resuspended in PBS. Cell counts were performed using a Neubaur hemocytometer. For differential analysis, samples were cytocentrifuged and stained with Diff-Quik. Measurement of Injury Markers Rats were removed at 56 h of hyperoxia and anesthetized with sodium pentobarbital. The pleural effusion was collected by inserting an 18 gauge needle and 10 cc syringe through the diaphragm and withdrawing all fluid present in the pleural cavity. BAL was performed as described above, and the first lavage was centrifuged at 1200 g for 10 min and the supernatant was assayed for the protein albumin as determined by Bromcresol Green Kit (BCG) from Sigma (St. Louis, Mo.). […] At each time point, 1 cc of blood was drawn into a heparinized syringe, sealed and placed on ice until analyzed for oxygen tension. Arterial oxygen tension and carboxyhemoglobin were determined using a BG3 Instrumentation Laboratory Blood Gas Analyzer and Co-oximeter (Boston, Mass.). […]

Turning to `[C-]#[O+]` [CO, carbon monoxide], the “nitrate or nitrite levels” value in the test on RAW 264.7 cells is reported as “no increases”. The “LPS-induced neutrophil influx into the airways” value in test [1] is “significantly inhibited”.

The record behind these values is patent publication US7678390B2, “Carbon monoxide as a biomarker and therapeutic agent” (priority 1999, dated 2010).
